The results in this text go back to patent US6635641B2 (Agouron Pharmaceuticals, Inc., priority 2000, dated 2003).

Counter-ions that a name gives are not always drawn. Like-named read-outs stand apart in the source and are kept apart here.

Broadly, the IC50 is the midpoint of a concentration-inhibition curve. By inhibition is commonly meant the percentage by which the read-out fell short of the control. By Ki is commonly meant a dissociation constant, usually derived from enzyme kinetics or from competition with a known ligand. For orientation: melting point means the temperature, or range, at which the solid turns liquid.

Data set [1] relates to human umbilical vein endothelial cells (HUVEC). As to the kind of experiment: HUVEC proliferation assay (VEGF-stimulated, MTT). The data set is classed as cell-based. To be noted: Homo sapiens. Put shortly: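 Proliferation measured by MTT reduction (4 h exposure, absorbance at 595) 72 hours after VEGF stimulation (final 6 ng/ml). Compound added to 24 h-starved HUVEC in F12K with 1% FBS and 0.1% final DMSO, one hour before the growth factor.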

Data set [2] concerns the target T1, FGF-R1 intracellular kinase domain (Homo sapiens, UniProt P11362, C488A/C584S/L457V).
T1 construct: starting from the endogenous methionine residue 456 to glutamate 766; made in house; host or cells: baculovirus expression system
In words: FGF-R spectrophotometric assay.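 As to all read-outs here: coupled PK/LDH enzyme assay: ADP from kinase phosphoryl transfer drives NADH oxidation, read as absorbance decrease at 340 nm, with 2 mM ATP and poly(E4Y1) substrate.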 Particulars: for inhibition at 1 µM: read-out: FGF-P percent inhibition. Format: biochemical.

In data set [3] the target is T2, LCK tyrosine kinase (Homo sapiens, UniProt P06239, C224D/P223M).
T2 construct: starting from amino acid residue 223 to the end of the protein at residue 509; made in house; host or cells: insect cells
As to the kind of experiment: LCK spectrophotometric assay.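 Also: recombinant LCK kinase activity on poly(E4Y1), ADP formation coupled through PK/LDH to NADH oxidation, followed as absorbance loss at 340 nm.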 Format: biochemical.
Protocol: The production of ADP from ATP that accompanies phosphoryl transfer was coupled to oxidation of NADH using phosphoenolpyruvate (PEP) and a system having pyruvate kinase (PK) and lactic dehydrogenase (LDH). The oxidation of NADH was monitored by following the decrease of absorbance at 340 nm (e340=6.22 cm^−1 mM^−1) using a Beckman DU 650 spectrophotometer. Assay conditions for phosphorylated VEGF-R2Δ50 (indicated as FLVK-P in the tables below) were the following: 1 mM PEP; 250 μM NADH; 50 units of LDH/mL; 20 units of PK/mL; 5 mM DTT; 5.1 mM poly(E4Y1); 1 mM ATP; and 25 mM MgCl2 in 200 mM Hepes, pH 7.5. Assay conditions for unphosphorylated VEGF-R2Δ50 (indicated as FLVK in the tables) were the following: 1 mM PEP; 250 μM NADH; 50 units of LDH/mL; 20 units of PK/mL; 5 mM DTT; 20 mM poly(E4Y1); 3 mM ATP; and 60 mM MgCl2 and 2 mM MnCl2 in 200 mM Hepes, pH 7.5. Assays were initiated with 5 to 40 nM of enzyme. Ki values were determined by measuring enzyme activity in the presence of varying concentrations of test compounds. The data were analyzed using Enzyme Kinetic and Kaleidagraph software.

The target in data set [4] is T3, unphosphorylated VEGF-R2Δ50 (FLVK) (Homo sapiens, UniProt P35968, DEL940-989/E990V).
T3 construct: VEGF-R2Δ50 contains residues 806-939 and 990-1171; made in house; host or cells: baculovirus/insect cells
As to the kind of experiment: VEGF-R2 coupled spectrophotometric assay, unphosphorylated construct (FLVK).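 As to all read-outs here: Baculovirus-expressed cytosolic kinase domain, ADP formation linked via pyruvate kinase and lactate dehydrogenase to NADH oxidation, read as falling absorbance at 340 nm.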 The data set is classed as biochemical. To be noted: for inhibition at 0.05 µM: @ 50 nM, read-out: FLVK percent inhibition.

Data set [5] concerns lung cancer cells (line MV522). As to the kind of experiment: Cancer cell proliferation (MV522) assay (MTT). Format: cell-based. How it is done: The protocol for assessing cellular proliferation in cancer cells is similar to that used for assessments in HUVEC cells. Two thousand lung cancer cells (line MV522, acquired from American Tissue Cultural Collection) were seeded in growth media (RPMI1640 medium supplemented with 2 mM glutamine and 10% FBS). Cells are allowed to attach for 1 day prior to addition of test agents and/or vehicles. Cells are treated simultaneously with the same test agents used in the HUVEC assay. Cellular proliferation is quantified by MTT dye reduction assay 72 hours after exposure to test agents. The total length of the assay is 4 days vs. 5 for HUVEC cells because MV522 cells are not exposed to starvation medium.

In data set [6] the target is T4, phosphorylated VEGF-R2Δ50 (FLVK-P) (Homo sapiens, UniProt P35968, DEL940-989/E990V).
T4 construct: VEGF-R2Δ50 contains residues 806-939 and 990-1171; made in house; host or cells: baculovirus/insect cells
As to the kind of experiment: VEGF-R2 coupled spectrophotometric assay, phosphorylated construct (FLVK-P). Format: biochemical. Put shortly: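 Continuous PK/LDH-coupled spectrophotometric read (NADH loss at 340 nm) with 5–40 nM enzyme in 200 mM Hepes pH 7.5. Phosphorylated construct run at 1 mM ATP, 25 mM MgCl2, 5.1 mM poly(E4Y1); unphosphorylated at 3 mM ATP, 60 mM MgCl2 plus 2 mM MnCl2, 20 mM poly(E4Y1). Ki values derived from varied inhibitor concentrations.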

The mark [7] stands for this setting: read-out: LCK-P percent inhibition.
[8] abbreviates: HUVEC, with albumin, read-out: Huvec + Albumin IC50.
Setting [9] is: HUVEC proliferation with albumin, read-out: Huvec + Albumin IC50.
[10] abbreviates: unphosphorylated VEGF-R2 construct.
Setting [11] is: VEGF-stimulated HUVEC proliferation, read-out: HUVEC IC50.

T4 sequence (P35968 with tags, fused parts or gaps DEL940-989/E990V limits assumed): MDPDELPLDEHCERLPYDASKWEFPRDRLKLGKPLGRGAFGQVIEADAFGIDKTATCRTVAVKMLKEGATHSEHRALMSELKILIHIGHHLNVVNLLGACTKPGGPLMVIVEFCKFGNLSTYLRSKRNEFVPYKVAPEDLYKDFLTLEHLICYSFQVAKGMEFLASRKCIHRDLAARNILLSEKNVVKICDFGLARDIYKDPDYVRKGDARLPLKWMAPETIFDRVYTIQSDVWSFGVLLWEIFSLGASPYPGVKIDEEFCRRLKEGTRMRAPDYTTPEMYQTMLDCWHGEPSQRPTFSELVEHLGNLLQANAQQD
T3 sequence (P35968 with tags, fused parts or gaps DEL940-989/E990V limits assumed): as above
T2 sequence (P06239 223-509 P223M/C224D): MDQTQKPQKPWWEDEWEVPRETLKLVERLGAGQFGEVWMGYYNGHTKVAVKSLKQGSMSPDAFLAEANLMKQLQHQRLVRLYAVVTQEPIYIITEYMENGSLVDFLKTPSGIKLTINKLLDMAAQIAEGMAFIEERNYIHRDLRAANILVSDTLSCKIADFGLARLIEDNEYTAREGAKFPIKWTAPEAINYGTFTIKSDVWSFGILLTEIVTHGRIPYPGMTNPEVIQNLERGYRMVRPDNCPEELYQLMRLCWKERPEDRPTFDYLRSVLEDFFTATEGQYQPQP
T1 sequence (P11362 456-766 L457V/C488A/C584S): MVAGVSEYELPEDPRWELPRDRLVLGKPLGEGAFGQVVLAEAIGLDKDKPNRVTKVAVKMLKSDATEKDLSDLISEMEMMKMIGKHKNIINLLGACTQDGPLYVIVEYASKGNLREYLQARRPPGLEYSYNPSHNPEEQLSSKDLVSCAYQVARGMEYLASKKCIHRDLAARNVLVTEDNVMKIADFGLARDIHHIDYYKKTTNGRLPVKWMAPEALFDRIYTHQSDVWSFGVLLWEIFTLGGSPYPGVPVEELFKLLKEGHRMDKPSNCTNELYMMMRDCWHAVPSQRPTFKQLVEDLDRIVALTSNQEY

Turning to `COc1ccc(Nc2cc(COc3cc(C(=O)Nc4ccc(-n5ccnc5)c(C(F)(F)F)c4)ccc3F)[nH]n2)cn1` [Example J-1, 4-Fluoro-N-[4-(imidazol-1-yl)-3-trifluoromethylphenyl]-3-[5-(6-methoxypyridin-3-yl)amino-2H-pyrazol-3-ylmethoxy]-benzamide], the IC50 in data set [1] (HUVEC, read-out: HUVEC IC50) is 37 nM. Besides, the figures for the inhibition at 1 µM in data set [2] and in data set [3] (setting [7]) were 61% and 38%, respectively. Moreover, in data set [4], affinity was put at a Ki of 1.6 nM.
As to `COc1cc(NC(=O)c2ccc(F)c(OCc3cc(Nc4ccc(OC)nc4)n[nH]3)c2)cc(C(F)(F)F)c1` [Example J-3, 4-Fluoro-3-[5-(6-methoxypyridin-3-yl)amino-2H-pyrazol-3-yl]methoxy-N-(3-methoxy-5-trifluoromethyl-phenyl)-benzamide], the half-maximal inhibitory concentration (IC50) in data set [1] (HUVEC, read-out: HUVEC IC50) was found to be 50 nM. In addition, the inhibition at 1 µM in data set [2] came out at 54%; in data set [3] (setting [7]), 44%. In data set [4], this compound registered a Ki of 0.92 nM.
Turning to `CN1CCN(c2ccc(NC(=O)c3ccc(F)c(OCc4cccnc4)c3)cc2C(F)(F)F)CC1` [Example R-20], the melting point is 61 to 66 °C. In addition, the IC50 in data set [1] (HUVEC, read-out: HUVEC IC50) was found to be 155 nM. For the same compound, the midpoint of inhibition in data set [5] (MV522), the IC50, lay at 2600 nM. Moreover, the inhibition at 0.05 µM in data set [4] stood at 19%.
As for `COc1ccc(Nc2cc(CCc3cccc(C(=O)Nc4cnc(N(C)C)c(C(F)(F)F)c4)c3)[nH]n2)cn1` [Example G-6, N-(6-Dimethylamino-5-trifluoromethylpyridin-3-yl)-3-{2-[5-(6-methoxypyridin-3-yl)amino-2H-pyrazol-3-yl]ethyl}-benzamide], the IC50 stood at 12 nM in data set [1] (HUVEC, read-out: HUVEC IC50); 59 nM in data set [1] (setting [8]); 10000 nM in data set [5] (MV522). The inhibition at 1 µM in data set [2] was 74%. In addition, the figures for the inhibitory constant (Ki) in data set [6] and in data set [3] (read-out: LCK-P Ki) were 1.98 nM and 65 nM, respectively.
As for `Cc1cc(NC(=O)c2cccc(CSc3ncnc4[nH]ncc34)c2)ccc1C(C)C` [Example A-5, N-(4-Isopropyl-3-methylphenyl)-3-[(1H-pyrazolo[3,4-d]pyrimidin-4-yl)sulfanylmethyl]benzamide], the melting point is 187 to 189 °C. In addition, the IC50 in data set [1] (HUVEC, read-out: HUVEC IC50) was determined as 270 nM. The IC50 in data set [5] (MV522) is more than 10000 nM. Further, in data set [6], the Ki amounted to 8.64 nM. The inhibition at 5 µM in data set [3] (@ 5 μM, read-out: LCK-P percent inhibition) was found to be 37%. The compound also registered a Ki in data set [4] of 1 nM.
On to `CC(=O)Nc1ccc(CCc2cccc(C(=O)Nc3ccc(N4CCNCC4)c(C(F)(F)F)c3)c2)cn1` [AA-1, 3-[2-(6-Acetylamino-pyridin-3-yl)-ethyl]-N-(4-piperazin-1-yl-3-trifluoromethylphenyl)-benzamide dihydrochloride], for which the IC50 in data set [1] (setting [9]) was determined as 25 nM. For the same compound, the inhibition at 1 µM was 39% in data set [2] and 44% in data set [3] (setting [7]). In addition, in data set [6] (@ 50 nM, read-out: FLVK-P percent inhibition), the inhibition at 0.05 µM is 59%. The compound further had a Ki in data set [4] (setting [10]) of 2.8 nM.
The compound `CC(=O)Nc1ccc(COc2cccc(C(=O)Nc3ccc(C(C)C)c(C)c3)c2)cn1` [Example N-2, 3-(6-Acetylaminopyridin-3-yl)methoxy-N-(4-Isopropyl-3-methyl-phenyl)-benzamide] came in with a melting point of 98 to 101 °C. In data set [1] (HUVEC, read-out: HUVEC IC50), the IC50 was more than 100 nM. Further, in data set [5] (MV522), the IC50 is more than 10000 nM. In addition, the inhibition at 0.05 µM in data set [4] came out at 8%.
On to `C/C=C/c1cc(COc2cc(C(=O)Nc3ccc(N4CCCC4)c(C(F)(F)F)c3)ccc2F)[nH]n1` [Example F-4, 4-Fluoro-3-[{5-((E)-1-propenyl)-2H-pyrazol-3-yl}methoxy]-N-[4-(pyrrolidin-1-yl)-3-trifluoromethylphenyl]benzamide], for which the IC50 in data set [1] (HUVEC, read-out: HUVEC IC50) turned out to be 63 nM; in data set [5] (MV522), 2600 nM. Further, the inhibition at 1 µM came out at 18% in data set [2] and 19% in data set [3] (setting [7]).
`O=C(Nc1cc(Cl)c(N2CCOCC2)c(Cl)c1)c1ccc(F)c(OCc2cccnc2)c1` [Example R-18, N-(3,5-Dichloro-4-morpholin-4-yl-phenyl)-4-fluoro-3-(pyridin-3-ylmethoxy)-benzamide]: the melting point was in the range of 209 to 211 °C. Further, the IC50 in data set [1] (HUVEC, read-out: HUVEC IC50) is 18 nM. In addition, the IC50 in data set [5] (MV522) is more than 10000 nM. The same compound displayed a Ki in data set [4] of 3.1 nM.
With `COc1cc(NC(=O)c2cccc(CSc3ncnc4[nH]ncc34)c2)cc(OC)c1OC` [Example B-1, N-(3,4,5-Trimethoxyphenyl)-3-[(1H-pyrazolo[3,4-d]pyrimidin-4-yl)sulfanylmethyl]benzamide], the Ki stood at 87000 nM in data set [2] (read-out: FGF-P Ki), 111 nM in data set [6] and 25 nM in data set [4].
Regarding `O=C(Nc1ccc(-n2cccn2)c(C(F)(F)F)c1)c1ccc(F)c(OCc2cccnc2)c1` [Example R-22, 4-Fluoro-N-(4-pyrazol-1-yl-3-trifluoromethyl-phenyl)-3-(pyridin-3-ylmethoxy)-benzamide], the IC50 in data set [1] (setting [8]) was more than 100 nM. In addition, the inhibition at 1 µM in data set [2] is 21%; in data set [3] (setting [7]), 13%. Further, in data set [4], the inhibition at 0.05 µM amounted to 52%.
In the case of `O=C(Nc1ccc(N2CCNCC2)c(C(F)(F)F)c1)c1ccc(F)c(OCc2cncc(-c3ccco3)c2)c1` [EE-1, 4-Fluoro-3-(5-furan-2-yl-pyridin-3-ylmethoxy)-N-(4-piperazin-1-yl-3-trifluoromethyl-phenyl)-benzamide dihydrochloride], the IC50 in data set [1] (setting [9]) is 180 nM. Besides, the inhibition at 1 µM came out at 32% in data set [2] and 53% in data set [3] (setting [7]). The compound also had an inhibitory constant (Ki) in data set [4] (setting [10]) of 3.4 nM.
With `CC(=O)Oc1ccc(C(=O)Nc2cccc(OCc3cncc4ccccc34)c2)cc1C(C)(C)C` [Example X-3, 4-Acetoxy-3-t-butyl-N-[3-(isoquinolin-4-ylmethoxy)phenyl]-benzamide], the melting point lay within 83 to 86 °C. In addition, in data set [1] (setting [11]), the IC50 is 30 to 100 nM. Besides, in data set [5] (MV522 lung cancer cells), the IC50 is 4600 nM. This compound also gave a Ki in data set [4] (setting [10]) of 2.2 nM.
Regarding `O=C(Nc1ccc(N2CCOCC2)c(C(F)(F)F)c1)c1ccc(F)c(OCc2cnc3ccccc3c2)c1` [Example R-16, 4-Fluoro-N-(4-morpholin-4-yl-3-trifluoromethyl-phenyl)-3-(quinolin-3-ylmethoxy)-benzamide], the melting point was 81 to 84 °C. Moreover, in data set [1] (HUVEC, read-out: HUVEC IC50), the IC50 came to 13 nM. Besides, in data set [5] (MV522), the IC50 was found to be 5600 nM. The compound also displayed an inhibition constant (Ki) in data set [4] of 2.3 nM.
`Cc1cc(NC(=O)c2cccc(CSc3cnccn3)c2)ccc1C(C)C` [Example A-3, N-(4-Isopropyl-3-methylphenyl)-3-[(pyrazin-2-yl)sulfanylmethyl]benzamide] yielded a melting point of 69 to 73 °C. Also, in data set [1] (HUVEC, read-out: HUVEC IC50), the IC50 came out at 240 nM. Besides, the IC50 in data set [5] (MV522) was more than 10000 nM. The compound further registered a Ki in data set [6] of 32 nM. For the same compound, in data set [4], the Ki was determined as 4.5 nM.
`Cc1ccc2cc(NC(=O)c3cccc(CCc4cc(Nc5ccccc5)n[nH]4)c3)ccc2n1` [Example G-2, N-(2-Methylquinolin-6-yl)-3-[2-(5-phenylamino-2H-pyrazol-3-yl)ethyl]benzamide] gave a melting point of 98 to 102 °C. Besides, the IC50 in data set [1] (HUVEC, read-out: HUVEC IC50) is 120 nM. For the same compound, the IC50 in data set [5] (MV522) was more than 10000 nM. The Ki in data set [6] was 1.78 nM.
Take `COc1ccc(Nc2cc(CSc3cccc(NC(=O)c4ccc(O)c(C(C)(C)C)c4)c3)[nH]n2)cn1` [Example W-1, 3-t-Butyl-4-hydroxy-N-{3-[5-(6-methoxy-pyridin-3-ylamino)-2 H-pyrazol-3-ylmethylsulfanyl]-phenyl}-benzamide]: in data set [1] (setting [11]), the IC50 is 23 nM. Further, the values for the inhibition at 1 µM in data set [2] and in data set [3] (setting [7]) were 67% and 88%, respectively. This compound registered a Ki in data set [4] (setting [10]) of 0.12 nM.
Take `Cc1ccc2cc(NC(=O)c3cccc(SCc4cc(-c5ccccc5)n[nH]4)c3)ccc2n1` [Example F-2]: the melting point lay within 99 to 101 °C. In data set [1] (HUVEC, read-out: HUVEC IC50), the IC50 worked out at 650 nM. Moreover, the IC50 in data set [5] (MV522) was more than 10000 nM. For the same compound, affinity in data set [6] was put at a Ki of 14.7 nM.
Compound `O=C(Nc1cc(Cl)c(N2CCNCC2)c(Cl)c1)c1ccc(F)c(OCc2cccnc2)c1` [Example R-19, N-(3,5-Dichloro-4-piperazin-1-yl-phenyl)-4-fluoro-3-(pyridin-3-ylmethoxy)-benzamide] registered a melting point of 81 to 85 °C. Further, the IC50 in data set [1] (HUVEC, read-out: HUVEC IC50) is 64 nM. Besides, in data set [5] (MV522), half-maximal inhibition (IC50) required 1700 nM. Also, the affinity in data set [4] corresponds to a Ki of 13.9 nM.
